Reference: PubChem BioAssay (NCI)
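These data come from cells grown in 96-well plates and exposed to compound for 48 hours at five concentrations. Here, GI50 denotes the concentration required for 50% inhibition of growth. TGI denotes the concentration required for complete inhibition of growth.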

What was measured:
Assay in all cases: NCI anticancer screen, dose series, 48 h
786-0 renal = tested on: 786-0 renal
ACHN renal = tested on: ACHN renal
DU-145 prostate = tested on: DU-145 prostate
HCT-116 colon = tested on: HCT-116 colon
MDA-MB-231 breast = tested on: MDA-MB-231 breast
SF-268 CNS = tested on: SF-268 CNS
SF-295 CNS = tested on: SF-295 CNS
SK-MEL-5 melanoma = tested on: SK-MEL-5 melanoma
SNB-75 CNS = tested on: SNB-75 CNS
HOP-92 NSCLC = tested on: HOP-92 NSCLC

SMILES | GI50 (786-0 renal) [µM] | TGI (786-0 renal) [µM] | GI50 (ACHN renal) [µM] | TGI (ACHN renal) [µM] | GI50 (DU-145 prostate) [µM] | TGI (DU-145 prostate) [µM] | GI50 (HCT-116 colon) [µM] | TGI (HCT-116 colon) [µM] | GI50 (MDA-MB-231 breast) [µM] | TGI (MDA-MB-231 breast) [µM] | GI50 (SF-268 CNS) [µM] | TGI (SF-268 CNS) [µM] | GI50 (SF-295 CNS) [µM] | GI50 (SK-MEL-5 melanoma) [µM] | TGI (SK-MEL-5 melanoma) [µM] | GI50 (SNB-75 CNS) [µM] | TGI (SNB-75 CNS) [µM] | TGI (HOP-92 NSCLC) [µM] | TGI (SF-295 CNS) [µM] | GI50 (HOP-92 NSCLC) [µM]
COc1ccc2c(c1)[nH]c(=O)c1c3cccc(F)c3cn21 | 0.0665 | > 86.1 | 0.0576 | > 100 | 0.0696 | > 100 | 0.0458 | 13.9 | 0.283 | > 100 | 0.0749 | 44.7 | 0.0408 | 0.0449 | > 100 | 0.0262 | 5.44 | – | – | –
O=C1N2Cc3c4ccc5c3CN3C(=O)N6Cc7c(ccc(c7CN1C6(c1ccccc1)C23c1ccccc1)OCCOCCNCCOCCO4)OCCOCCNCCOCCO5 (configuration not stated) | – | 97.4 | – | 47.9 | – | – | – | > 100 | – | – | – | > 100 | – | – | > 100 | – | > 100 | 57.4 | > 100 | –
c1ccc(C2OC3(CCC[C@H]4C[C@H]43)O[C@H]2c2ccccc2)cc1 (some centres not stated) | – | > 100 | – | > 100 | – | – | – | > 100 | – | – | – | > 100 | – | – | 65.7 | – | 91.9 | 66.2 | > 100 | –
CC(C)(C)c1ccc(Oc2ccc(N)cn2)cc1 | 16.8 | > 100 | > 100 | > 100 | 38.2 | > 100 | 47.5 | > 100 | 31.7 | > 100 | 5.77 | > 100 | 45.8 | 25.8 | 79.2 | 10.9 | > 100 | – | > 100 | –
Nc1nc([Se])c2ncn(C3OC(CO)C(O)C3O)c2n1 (configuration not stated) | 17.2 | > 100 | 20.8 | > 100 | 3.31 | > 100 | 4 | > 100 | 2.81 | 69.8 | 9.27 | > 100 | 3.95 | 25.2 | 89.6 | > 100 | > 100 | – | > 100 | –
CCOC(=O)Oc1cc2c(c(OC)c1OC)-c1ccc(OC)c(=O)cc1C(NC(C)=O)CC2 (configuration not stated) | – | > 100 | – | > 100 | – | – | – | 1.85 | – | > 90.2 | – | 73.5 | – | – | 0.14 | – | > 16.9 | 28.7 | 3.09 | –
CC1=C(C(=O)Nc2ccccc2)C(c2cccc3ccccc23)C(C(=O)Nc2ccccc2)=C(C)N1 | – | 52.5 | – | 83.8 | – | – | – | 28.7 | – | – | – | 43.1 | – | – | 33.4 | – | 47.7 | 58.8 | 46.6 | –
CCC(C)Nc1ccc(N)cc1 (configuration not stated) | 3.89 | 14.3 | 3.73 | 13.3 | 5.75 | 19.7 | 2.73 | 8.73 | 2.91 | 12.8 | 5.61 | 19.2 | 4.91 | 2.86 | 9.05 | 4.25 | 20.3 | – | 20.1 | –
ClC/C=C/COC1CCCCO1 (configuration not stated) | – | > 100 | – | > 100 | – | – | – | > 100 | – | – | – | > 100 | – | – | > 100 | – | > 100 | > 100 | > 100 | –
O=C(CC1OC(O)C(Cl)=C1Cl)c1cccnc1 (configuration not stated) | – | > 60.1 | – | > 31.6 | – | – | – | > 54.8 | – | – | – | > 100 | – | – | > 100 | – | > 100 | > 100 | > 100 | –
CCCCCCCCCCCCCC[N+](C)(C)CCCCCCCCCCCCCC | 2.02 | 4.92 | 2.62 | 6.85 | 3.42 | 12.5 | – | – | – | – | 2.92 | 8.38 | 7.72 | – | – | – | – | – | 37.7 | –
O=C(/C=C/c1ccccc1F)c1ccc(Cl)c(Cl)c1 | – | 31.4 | – | > 100 | – | – | – | 32.1 | – | – | – | > 100 | – | – | > 84.1 | – | 98.5 | > 100 | > 100 | –
Cc1ccccc1NC(=O)c1sc2nc(C)c(C(=O)/C=C/c3ccccc3)cc2c1N | 0.82 | 1.77 | 0.927 | 1.86 | 1.34 | 4.28 | 0.896 | 1.96 | 1.8 | 11 | 1.2 | 3.58 | 2.43 | 1.11 | 2.71 | – | – | 7.26 | 16.8 | 1.48
O=C1C=CC=C/C1=C1/SC(c2ccccc2)=C(O)N1c1ccccc1 | – | > 100 | – | > 100 | – | – | – | > 100 | – | – | – | > 100 | – | – | > 100 | – | > 100 | > 100 | > 100 | –
COc1ccc(C/C(=C(\C)c2ccc(OCCN3CCCC3)cc2)c2ccc(OCCN3CCCC3)cc2)cc1 | 1.63 | 3.24 | 1.74 | 3.12 | 1.86 | 3.75 | – | – | 1.73 | 3.37 | 1.97 | 4.19 | 1.76 | 1.72 | 3.11 | 1.59 | 3.22 | 8.25 | 3.47 | 1.96
O=c1[nH]c2ccccc2nc1/C=C(\O)c1ccccc1O | – | > 100 | – | > 100 | – | – | – | > 100 | – | – | – | > 100 | – | – | > 100 | – | > 100 | > 100 | > 100 | –
CNC(=O)c1c(NC(=O)c2ccc(C(C)(C)C)cc2)sc2c(CN(C)C)c(O)ccc12 | 1.74 | 3.3 | – | – | – | – | 0.936 | 2.43 | 1.81 | 3.67 | 1.77 | 3.46 | 1.86 | 1.81 | 3.25 | – | – | 2.74 | 3.56 | 1.2
CC1/C(=N\O)CC(c2ccccc2)N(C)C1c1ccccc1 (configuration not stated) | – | > 100 | – | > 100 | – | – | – | > 100 | – | – | – | > 100 | – | – | > 100 | – | > 100 | > 100 | > 100 | –
